According to patent US20030199699A1, “3-(4,5-Dihydroisoxaxol-5-yl)benzoylcyclohexenones and the use thereof as herbicides” (priority 2000, published 2003):

Legend:
redroot pigweed = test: greenhouse herbicidal test, pre-emergence; assay type: in vivo, Amaranthus retroflexus; details: 125 or 62.5 g/ha
Source text: (§1) The culture containers used were plastic flower pots containing loamy sand with approximately 3.0% of humus as substrate. The seeds of the test plant were sown separately for each species.
(§2) For the pre-emergence treatment, the active ingredients, which were suspended or emulsified in water, were applied directly after sowing by means of finely distributing nozzles. The containers were irrigated gently to promote germination and growth and subsequently covered with transparent plastic hoods until the plants had rooted. This cover caused uniform germination of the test plants unless this was adversely affected by the active ingredients.
(§3) Depending on the species, the plants were kept at temperatures of from 10 to 25° C. or from 20 to 35° C. The test period extended over 2 to 4 weeks. During this time, the plants were tended, and their response to the individual treatments was evaluated.
(§4) Evaluation was carried out using a scale of from 0 to 100. 100 means no emergence of the plants, or complete destruction of at least the aerial parts, and 0 means no damage or normal course of growth.
(§5) The plants used in the greenhouse experiments belonged to the following species: […]

hairy fingergrass = test: greenhouse herbicidal test, pre-emergence; assay type: in vivo, Digitaria sanguinalis; details: 125 or 62.5 g/ha
Source text: as §1, §2, §3, §4, §5

lambsquarters = test: greenhouse herbicidal test, pre-emergence; assay type: in vivo, Chenopodium album; details: 125 or 62.5 g/ha
Source text: as §1, §2, §3, §4, §5

black nightshade = test: greenhouse herbicidal test, pre-emergence; assay type: in vivo, Solanum nigrum; details: 125 or 62.5 g/ha
Source text: as §1, §2, §3, §4, §5

CC1=NOC(c2c(S(C)(=O)=O)ccc(C(=O)C3=C(O)CCCC3=O)c2C)C1 (centres unmarked) [Compound 2.5, 2-[2-Methyl-3-(3-methyl-4,5-dihydroisoxazol-5-yl)-4-methylsulfonylbenzoyl]-1-hydroxycyclohex-1-en-3-one]
herbicidal action against redroot pigweed (redroot pigweed): highly efficiently
herbicidal action against hairy fingergrass (hairy fingergrass): highly efficiently
herbicidal action against lambsquarters (lambsquarters): highly efficiently
herbicidal action against black nightshade (black nightshade): highly efficiently
melting point: 135 to 140 °C
